Assay results taken from patent publication US20210255193A1, “LYSINE REACTIVE PROBES AND USES THEREOF” (The Scripps Research Institute, priority 2017, published 2021).

Assays:
Test in all cases: competitive isoTOP-ABPP
Type in all cases: binding
[1] = biological target: T1, TPMT Thiopurine S-methyltransferase (Homo sapiens, UniProt P51580); parameters: key to isoTOP-ABPP reactivity ratio at lysine P51580_K32: R = MS1 peak area ratio, DMSO (heavy) / compound-treated (light); settings: for isoTOP-ABPP reactivity ratio at lysine P51580_K32 / isoTOP-ABPP ratio (R) at liganded lysine P51580_K32: 50 uM, in vitro; for isoTOP-ABPP reactivity ratio at lysine P51580_K32: 231 sol; for isoTOP-ABPP ratio (R) at liganded lysine P51580_K32: sol, 231
T1 construct: isoTOP-ABPP experiments performed in cell lysates (in vitro); endogenous in cells; host or cells: soluble proteome of human cancer cell lines (MDA-MB-231; Ramos and Jurkat also prepared)
T1 sequence (P51580 1-245): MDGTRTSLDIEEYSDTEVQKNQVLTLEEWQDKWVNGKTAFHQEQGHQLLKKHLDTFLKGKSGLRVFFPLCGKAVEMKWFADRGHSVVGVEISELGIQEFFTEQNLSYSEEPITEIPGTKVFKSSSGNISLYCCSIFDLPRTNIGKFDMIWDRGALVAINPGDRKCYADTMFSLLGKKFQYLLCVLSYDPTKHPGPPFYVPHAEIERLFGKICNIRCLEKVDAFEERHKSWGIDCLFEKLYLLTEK
Description: (§1) In vitro covalent fragment treatment for isoTOP-ABPP. All compounds were made up as solutions in DMSO (100×) and were used at a final concentration of 50 μM for activated esters and 100 μM for guanidinylating agents. For each profiling sample, 0.5 ml of lysate was treated with 5 μl of the 100× compound stock solution or 5 μl of DMSO. Samples were treated with activated esters for
(§2) STP-alkyne labeling and click chemistry. For concentration-dependent reactivity measurements by isoTOP-ABPP, 0.5 ml proteome aliquots were treated at ambient temperature with 1 mM STP-alkyne 1 (5 μl of 100 mM stock in DMSO) and 0.1 mM STP alkyne 1 (5 μl of 10 mM stock in DMSO), respectively. For competitive isoTOP-ABPP, after in vitro fragment treatment (detailed above), the samples were labeled for 1 h at ambient temperature with 0.1 mM STP-alkyne 1 (5 μl of 10 mM stock in DMSO). Samples were conjugated by copper-mediated azide-alkyne cycloaddition (CuAAC) to either the light (1 mM STP-alkyne or fragment treated) or heavy (0.1 mM STP-alkyne or DMSO treated) TEV tags (10 μl of 5 mM stocks in DMSO, final concentration=100 μM) using tris(2-carboxyethyl)phosphine hydrochloride
(§3) R value calculation and processing. The ratios of light and heavy MS1 peaks for each unique peptide were quantified with a CIMAGE software using default parameters (3 MS1 acquisitions per peak and signal to noise threshold set to 2.5). For reactivity measurements by isoTOP-ABPP, the R value was calculated from the ratio of MS1 peak areas, comparing the 1 mM STP alkyne sample (light TEV tag) with the 0.1 mM STP alkyne sample (heavy TEV tag). For competitive isoTOP-ABPP, the R value was calculated from the ratio of MS1 peak areas, comparing the DMSO treated sample (heavy TEV tag) with the compound treated sample (light TEV tag). […] Ratios for unique peptide entries are calculated for each experiment; overlapping peptides with the same modified lysine (for example, different charge states, MudPIT chromatographic steps or tryptic termini) are grouped together and the median ratio is reported as the final ratio (R). The peptide ratios reported by CIMAGE were further filtered to ensure the removal or correction of low-quality ratios in each individual data set. The quality filters applied were the following: removal of half tryptic peptides; for ratios with high standard deviations from the median (90% of the median or above) the lowest ratio was taken instead of the median; removal of peptides with R=20 and only a single MS2 event triggered during the elution of the parent ion; manual annotation of all the peptides with ratios of 20, removing any peptides with low quality elution profiles that remained after the previous curation steps (only done for competitive isoTOP-ABPP).
(§4) Cross-data processing for fragment screening. For compound treated samples, biological replicates of the same condition were averaged, if the standard deviation was below 60% of the mean; otherwise, for lysines with at least one R value <4 for a particular compound, the lowest value of the ratio set was taken. For lysines, where all R values for a particular compound were ≥4, the average was reported. For peptides containing several possible modified lysines, the lysine with the highest number of quantification events was used for analysis and the remaining, redundant peptides were reported as alternative modification sites. Peptides included in the aggregate dataset (those used for further bioinformatics and statistical analyses) were required to have been quantified in 2 experiments for competitive isoTOP-ABPP. Lysines were categorized as liganded, if they had at least one ratio R≥4 (hit fragments). For liganded lysines with R=20 for all liganding events, lysines were required to have been quantified with R=20 in two separate experiments and were further required to have been quantified with R<20 in one additional experiment.

ADK Adenosine kinase = biological target: T2, ADK Adenosine kinase (Homo sapiens, UniProt P55263); parameters: key to isoTOP-ABPP reactivity ratio at lysine P55263_K88: R = MS1 peak area ratio, DMSO (heavy) / compound-treated (light); settings: for isoTOP-ABPP reactivity ratio at lysine P55263_K88 / isoTOP-ABPP ratio (R) at liganded lysine P55263_K88: 50 uM, in vitro; for isoTOP-ABPP reactivity ratio at lysine P55263_K88: 231 sol; for isoTOP-ABPP ratio (R) at liganded lysine P55263_K88: sol, 231; for isoTOP-ABPP ratio, lysine P55263_K88: 100 uM_231_sol_in vitro
T2 construct: isoTOP-ABPP experiments performed in cell lysates (in vitro); endogenous in cells; host or cells: soluble proteome of human cancer cell lines (MDA-MB-231, Ramos, Jurkat)
Description: as §1, §2, §3, §4

[2] = biological target: T3, SRP54 Signal recognition particle 54 kDa protein (Homo sapiens, UniProt P61011); parameters: key to isoTOP-ABPP reactivity ratio at lysine P61011_K81: R = MS1 peak area ratio, DMSO (heavy) / compound-treated (light); capped at 20; settings: for isoTOP-ABPP reactivity ratio at lysine P61011_K81: 231 sol
T3 construct: isoTOP-ABPP experiments performed in cell lysates (in vitro); endogenous in cells; host or cells: soluble proteome of human cancer cell lines (MDA-MB-231, Ramos, Jurkat)
Description: as §1, §2, §3, §4

[3] = biological target: T4, ISOC2 Isochorismatase domain-containing protein 2, mitochondrial (Homo sapiens, UniProt Q96AB3); parameters: key to isoTOP-ABPP reactivity ratio at lysine Q96AB3_K178: R = MS1 peak area ratio, DMSO (heavy) / compound-treated (light); capped at 20; settings: for isoTOP-ABPP reactivity ratio at lysine Q96AB3_K178 / isoTOP-ABPP ratio (R) at liganded lysine Q96AB3_K178: 50 uM, in vitro; for isoTOP-ABPP reactivity ratio at lysine Q96AB3_K178: 231 sol; for isoTOP-ABPP ratio (R) at liganded lysine Q96AB3_K178: sol, 231; for isoTOP-ABPP ratio, lysine Q96AB3_K178: 100 uM_231_sol_in vitro
T4 construct: isoTOP-ABPP experiments performed in cell lysates (in vitro); endogenous in cells; host or cells: soluble proteome of human cancer cell lines (MDA-MB-231; Ramos and Jurkat also prepared)
T4 sequence (Q96AB3 1-205): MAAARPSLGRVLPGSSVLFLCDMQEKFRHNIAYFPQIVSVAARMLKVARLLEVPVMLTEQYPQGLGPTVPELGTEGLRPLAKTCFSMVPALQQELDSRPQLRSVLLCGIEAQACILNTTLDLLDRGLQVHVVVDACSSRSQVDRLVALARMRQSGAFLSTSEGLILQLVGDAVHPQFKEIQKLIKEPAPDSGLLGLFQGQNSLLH
Description: as §1, §2, §3, §4

T2 sequence (P55263 whole entry): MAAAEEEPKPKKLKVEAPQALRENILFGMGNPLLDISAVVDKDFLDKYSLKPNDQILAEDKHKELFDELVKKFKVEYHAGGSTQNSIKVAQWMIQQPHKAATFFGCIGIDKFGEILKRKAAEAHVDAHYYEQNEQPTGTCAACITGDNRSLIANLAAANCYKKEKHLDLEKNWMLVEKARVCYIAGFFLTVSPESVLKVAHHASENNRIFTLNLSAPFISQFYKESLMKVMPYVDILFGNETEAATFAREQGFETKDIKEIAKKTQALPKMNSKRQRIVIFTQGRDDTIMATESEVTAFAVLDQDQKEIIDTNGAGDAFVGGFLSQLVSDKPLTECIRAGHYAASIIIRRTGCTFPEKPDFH
T3 sequence (P61011 whole entry): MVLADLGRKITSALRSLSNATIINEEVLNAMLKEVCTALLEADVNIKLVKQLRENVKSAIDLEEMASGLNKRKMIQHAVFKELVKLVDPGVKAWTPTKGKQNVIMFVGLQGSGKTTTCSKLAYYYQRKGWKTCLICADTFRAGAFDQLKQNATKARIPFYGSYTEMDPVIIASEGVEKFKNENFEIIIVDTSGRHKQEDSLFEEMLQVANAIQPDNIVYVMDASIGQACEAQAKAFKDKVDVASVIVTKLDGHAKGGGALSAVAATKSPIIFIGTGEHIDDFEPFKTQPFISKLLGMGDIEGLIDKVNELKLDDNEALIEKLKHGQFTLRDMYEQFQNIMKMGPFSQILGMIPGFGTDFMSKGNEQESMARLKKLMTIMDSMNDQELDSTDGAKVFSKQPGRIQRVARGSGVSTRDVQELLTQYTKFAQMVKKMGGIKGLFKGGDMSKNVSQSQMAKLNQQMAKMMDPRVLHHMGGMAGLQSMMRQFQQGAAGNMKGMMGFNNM

| Compound | isoTOP-ABPP reactivity ratio at lysine P51580_K32 [1] | isoTOP-ABPP reactivity ratio at lysine P55263_K88 (ADK Adenosine kinase) | isoTOP-ABPP reactivity ratio at lysine P61011_K81 ([2]; 50 uM, in vitro) | isoTOP-ABPP reactivity ratio at lysine Q96AB3_K178 [3] | isoTOP-ABPP ratio (R) at liganded lysine P55263_K88 (ADK Adenosine kinase) | isoTOP-ABPP ratio (R) at liganded lysine Q96AB3_K178 [3] | other results |
| --- | --- | --- | --- | --- | --- | --- | --- |
| CCn1cc(C(=O)Oc2c(F)c(F)c(F)c(F)c2F)c(=O)c2ccc(C)nc21 [fragment 28, Pentafluorophenyl 1-ethyl-7-methyl-4-oxo-1,4-dihydro-1,8-naphthyridine-3-carboxylate] | 1.1 | 0.8 | 0.8 | 1.8 | – | – | – |
| O=C(CCc1cn(-c2ccccc2)nc1-c1ccccc1)Oc1ccc([N+](=O)[O-])cc1[N+](=O)[O-] [fragment 29, 2,4-Dinitrophenyl 3-(1,3-diphenyl-1H-pyrazol-4-yl)propanoate] | 1.4 | 1.0 | 1.1 | 1.7 | – | – | – |
| O=C(Oc1ccc([N+](=O)[O-])cc1[N+](=O)[O-])C(c1ccccc1)c1ccccc1 [fragment 30, 2,4-Dinitrophenyl 2,2-diphenylacetate] | 1.5 | 0.8 | 20.0 | 1.0 | – | – | – |
| O=C(Oc1ccc([N+](=O)[O-])cc1[N+](=O)[O-])c1cc(C(F)(F)F)cc(C(F)(F)F)c1 [fragment 31, 2,4-Dinitrophenyl 3,5-bis(trifluoromethyl)benzoate] | 2.5 | 0.7 | 0.9 | 2.1 | – | – | – |
| O=C(Oc1ccc([N+](=O)[O-])cc1[N+](=O)[O-])c1ccc2ccccc2n1 [fragment 35, 2,4-Dinitrophenyl quinoline-2-carboxylate] | – | – | – | – | 0.6 | 1.3 | isoTOP-ABPP ratio (R) at liganded lysine P61011_K81 ([2]; 50 uM, in vitro, sol, 231): 0.8 |
| O=C(CC12CC3CC(CC(C3)C1)C2)Oc1ccc([N+](=O)[O-])cc1[N+](=O)[O-] [fragment 38, 2,4-Dinitrophenyl 2-(adamantan-1-yl)acetate] | – | – | – | – | 0.9 | 0.9 | isoTOP-ABPP ratio (R) at liganded lysine P51580_K32 [1]: 1.1 |
| O=C(Oc1ccc([N+](=O)[O-])cc1[N+](=O)[O-])c1ccccc1Nc1cccc(C(F)(F)F)c1 [fragment 40, 2,4-Dinitrophenyl 2-((3-(trifluoromethyl)phenyl)amino)benzoate] | – | – | – | – | 0.9 | 0.9 | isoTOP-ABPP ratio (R) at liganded lysine P51580_K32 [1]: 1.1 |
| COC(=O)NC(=NC(=O)OCC1c2ccccc2-c2ccccc21)n1cccn1 [fragment 49, N-Methoxycarbonyl-N′-9-fluorenylmethoxycarbonyl-pyrazole-1-carboxamidine] | – | – | – | – | – | – | isoTOP-ABPP ratio, lysine P55263_K88 (ADK Adenosine kinase): 1.2; isoTOP-ABPP ratio, lysine P61011_K81 ([2]; 100 uM_231_sol_in vitro): 1.0; isoTOP-ABPP ratio, lysine Q96AB3_K178 [3]: 1.1 |
| CC(C)(C)OC(=O)N=C(NC(=O)OC(C)(C)C)n1cccn1 [fragment 50, reference compound] | – | – | – | – | – | – | isoTOP-ABPP ratio, lysine P51580_K32 ([1]; 100 uM_231_sol_in vitro): 11.7; isoTOP-ABPP ratio, lysine P55263_K88 (ADK Adenosine kinase): 1.0; isoTOP-ABPP ratio, lysine Q96AB3_K178 [3]: 1.1 |
